From the supplement of paper PMC10331698
± gives the standard deviation of the averaged measurements.

Assays:
Assay in all cases: level (log10 ratio to DMSO vehicle control); higher = higher biomarker level / cell amount than vehicle control
Details in all cases: in DMSO
[1] = compound: O=S(=O)(O)C(F)(F)C(F)(F)C(F)(F)C(F)(F)C(F)(F)C(F)(F)F [Perfluorohexanesulfonic acid]
Procedure: (§1)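 BioMAP Diversity Plus panel of 12 human primary cell co-culture systems (3C, 4H, LPS, SAg, BT, BF4T, BE3C, CASM3C, HDF3CGF, KF3CT, MyoF, Mphg). Compounds were added 1 h before stimulation and left for 24 h (MyoF 48 h; BT 72 h for soluble read-outs or 6 d for IgG). Biomarkers were read by ELISA, cytotoxicity by SRB, PBMC viability and proliferation by Alamar Blue. Each well value was divided by the mean of 8 DMSO control wells on the same plate and log10 transformed; duplicate blinded samples were tested at 4 concentrations.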

[2] = compound: FC(F)(F)C(F)(F)C(F)(F)C(F)(F)C(F)(F)C(F)(F)C(F)(F)C(F)(F)CCS [2-(Perfluorooctyl)ethanthiol]
Procedure: as §1

Perfluorodecanoic acid = compound: O=C(O)C(F)(F)C(F)(F)C(F)(F)C(F)(F)C(F)(F)C(F)(F)C(F)(F)C(F)(F)C(F)(F)F [Perfluorodecanoic acid]
Procedure: as §1

Perfluoroheptanoic acid = compound: O=C(O)C(F)(F)C(F)(F)C(F)(F)C(F)(F)C(F)(F)C(F)(F)F [Perfluoroheptanoic acid]
Procedure: as §1

[3] = compound: O=C(O)C(F)(F)C(F)(F)C(F)F [4H-Perfluorobutanoic acid]
Procedure: as §1

Pentafluoropropionamide = compound: NC(=O)C(F)(F)C(F)(F)F [Pentafluoropropionamide]
Procedure: as §1

Perfluoropropanoic acid = compound: O=C(O)C(F)(F)C(F)(F)F [Perfluoropropanoic acid]
Procedure: as §1

Row | Test System | level (log10) ([1]; 6700 nM) | level (log10) ([1]; 20000 nM) | level (log10) ([1]; 60000 nM) | level (log10) ([2]; 6700 nM) | level (log10) ([2]; 20000 nM) | level (log10) (Perfluorodecanoic acid; 6700 nM) | level (log10) (Perfluorodecanoic acid; 20000 nM) | level (log10) (Perfluoroheptanoic acid; 6700 nM) | level (log10) (Perfluoroheptanoic acid; 20000 nM) | level (log10) (Perfluoroheptanoic acid; 60000 nM) | level (log10) ([3]; 6700 nM) | level (log10) ([3]; 20000 nM) | level (log10) ([3]; 60000 nM) | level (log10) (Pentafluoropropionamide; 6700 nM) | level (log10) (Pentafluoropropionamide; 20000 nM) | level (log10) (Pentafluoropropionamide; 60000 nM) | level (log10) (Perfluoropropanoic acid; 6700 nM) | level (log10) (Perfluoropropanoic acid; 20000 nM) | level (log10) (Perfluoropropanoic acid; 60000 nM)
1 | SAg:CXCL9/MIG | 0.004 | -0.005 ± 0.0057 | 0.0035 ± 0.0078 | 0.0015 ± 0.016 | 0.01 ± 0.0042 | -0.006 ± 0.011 | -0.0025 ± 0.015 | -0.0125 ± 0.0078 | 0.0015 ± 0.0064 | 0.0105 ± 0.011 | -0.0115 ± 0.00071 | -0.0035 ± 0.0078 | 0.0095 ± 0.016 | -0.0145 ± 0.0021 | -0.017 ± 0.0014 | 0.009 ± 0.014 | -0.0015 ± 0.0078 | 0.012 ± 0.0057 | 0.0025 ± 0.022
2 | BT:sIL-17F | 0.0235 ± 0.09 | 0.0375 ± 0.018 | -0.063 | -0.068 ± 0.055 | 0.092 ± 0.062 | 0.019 ± 0.016 | 0.0345 ± 0.13 | -0.0725 ± 0.13 | -0.023 ± 0.21 | -0.013 ± 0.045 | -0.0445 ± 0.005 | -0.067 ± 0.17 | -0.0165 ± 0.036 | -0.02 ± 0.085 | -0.03 | 0.0275 ± 0.0064 | 0.0335 ± 0.0035 | 0.0335 ± 0.023 | -0.0045 ± 0.052
3 | BE3C:HLA-DR | -0.014 ± 0.031 | -0.0285 ± 0.013 | -0.0585 ± 0.028 | -0.0075 ± 0.0035 | -0.0135 ± 0.0092 | -0.0525 ± 0.022 | -0.842 ± 0.04 | -0.009 ± 0.0014 | -0.004 ± 0.0014 | 0.002 ± 0.027 | -0.023 | -0.022 ± 0.0085 | -0.0005 ± 0.028 | -0.0115 ± 0.0078 | 0.0045 ± 0.0064 | 0.0055 ± 0.026 | -0.026 ± 0.0085 | -0.012 ± 0.024 | 0.016 ± 0.016
4 | BE3C:IL-1alpha | 0.0145 ± 0.042 | 0.02 ± 0.018 | 0.0545 ± 0.0021 | -0.038 ± 0.0014 | -0.017 ± 0.016 | -0.0245 ± 0.00071 | -0.811 ± 0.055 | -0.0185 ± 0.029 | -0.0065 ± 0.03 | 0.0115 ± 0.0064 | -0.0325 ± 0.0064 | -0.018 ± 0.025 | -0.0045 ± 0.079 | 0.0095 ± 0.022 | 0.003 ± 0.014 | 0.0295 ± 0.0035 | -0.019 ± 0.016 | -0.021 ± 0.04 | -0.0115 ± 0.023
5 | LPS:M-CSF | -0.0065 ± 0.025 | -0.0045 ± 0.025 | 0.036 ± 0.02 | 0.0095 ± 0.0035 | -0.0035 ± 0.0092 | -0.0015 ± 0.015 | -0.0045 ± 0.018 | -0.028 ± 0.024 | -0.008 ± 0.018 | -0.007 ± 0.038 | -0.001 ± 0.042 | -0.007 ± 0.014 | -0.003 ± 0.035 | -0.0285 ± 0.039 | -0.0055 ± 0.0064 | 0.023 ± 0.0042 | 0.006 ± 0.0028 | -0.027 ± 0.0014 | -0.0005 ± 0.037
6 | LPS:CD141/Thrombomodulin | -0.007 ± 0.0057 | -0.0065 ± 0.013 | -0.008 ± 0.0014 | 0.0055 ± 0.0064 | -0.0385 ± 0.028 | 0.0035 ± 0.00071 | 0.002 ± 0.0057 | -0.0115 ± 0.03 | 0.002 ± 0.011 | -0.035 ± 0.0099 | -0.009 | -0.012 ± 0.016 | -0.008 ± 0.013 | -0.0385 ± 0.00071 | -0.005 ± 0.0028 | -0.01 ± 0.0014 | -0.003 ± 0.027 | -0.007 ± 0.0057 | 0.013 ± 0.0057
7 | BT:sIL-6 | 0.046 ± 0.052 | 0.0105 ± 0.036 | -0.056 ± 0.061 | 0.011 ± 0.042 | -0.02 ± 0.041 | -0.029 ± 0.071 | 0.077 ± 0.058 | 0.02 ± 0.065 | 0.0175 ± 0.044 | -0.0375 ± 0.071 | -0.008 | -0.046 ± 0.031 | -0.0915 ± 0.026 | 0.055 ± 0.027 | 0.017 ± 0.023 | -0.0095 ± 0.052 | 0.021 ± 0.023 | -0.0015 ± 0.0035 | 0.035 ± 0.024
